Data: patent US20080090873A1, “Sulfonamide derivatives” (priority 2006, published 2008)

Key:
[1] = molecular target: human adrenergic B2 receptor (Homo sapiens, UniProt P07550); assay: Whole cell luciferase reporter assay of agonist potency in CHO cells expressing the hB2 receptor; format: cell-based; settings: 4 h incubation, read-out: EC50 - beta2
Procedure: Functional Assessment of Agonist Potency and Efficacy Using a Whole Cell Luciferase Reporter Assay in CHO Cells Expressing the hB2 Receptor.
CHO (Chinese Hamster Ovary) cells recombinantly expressing the human adrenergic B2 receptor and transfected with a luciferase enzyme reporter gene were maintained in growth media composed of F12:DMEM (Sigma D6421) containing 10% Foetal Bovine Serum (FBS: Sigma F03921) 10 μg/ml puromycin (Sigma N277698), 0.5 mg/ml Geneticin G418 (Sigma G7034) and 2 mM L-glutamine (Sigma G7513). The cells were kept in sterile conditions at 37° C., in an atmosphere containing 5% CO2.
hB2 Luciferase Assay Protocol
Cells were harvested for assay when they reached 80-90% confluency using enzyme free cell Dissociation Solution (Life technologies 13151-014) incubated with the cells for 5 min at 37° C. in an atmosphere containing 5% CO2. Detached cells were collected in warmed growth media (composition described above), and re-suspended in assay media (F12:DMEM (Sigma D6421) containing 1% Foetal Bovine Serum (FBS: Sigma F03921), 10 μg/ml puromycin (Sigma N277698), 0.5 mg/ml Geneticin G418 (Sigma G7034) and 2 mM L-glutamine (Sigma G7513)) to give a viable cell concentration of 1×10^6 cells/ml. 10 ul of this suspension was added to each well of a tissue culture treated low volume 384 well plate (Greiner788073) and the plate incubated in an atmosphere containing 5% CO2 at 37° C. for 2 h. Concentration ranges of test compounds were prepared in phosphate Buffered Saline containing 0.05% pluronic-F127 (Sigma P2443) and 2.5% DMSO. […] At the end of the incubation period 4 μl of Steady-Glo reagent (Steady-Glo Luciferase assay system (Promega E2520) was added to each well and the plate read immediately in a Leadseeker Plate reader (Amersham Bioscience) using a 660 nm filter. Concentration effect curves were plotted and EC50 values generated using a 4-parameter sigmoid fit using an in-house data analysis programme. Isoprenaline was run in every assay as a reference standard.

[2] = molecular target: human muscarinic M3 receptor (Homo sapiens, UniProt P20309); assay: Whole cell β-lactamase reporter assay of antagonist activity in CHO cells expressing the hM3 receptor; format: cell-based; settings: NFAT β-lactamase reporter, inhibition of 80 nM carbamyl choline signal, 4 h
Sequence of human muscarinic M3 receptor (P20309 whole entry): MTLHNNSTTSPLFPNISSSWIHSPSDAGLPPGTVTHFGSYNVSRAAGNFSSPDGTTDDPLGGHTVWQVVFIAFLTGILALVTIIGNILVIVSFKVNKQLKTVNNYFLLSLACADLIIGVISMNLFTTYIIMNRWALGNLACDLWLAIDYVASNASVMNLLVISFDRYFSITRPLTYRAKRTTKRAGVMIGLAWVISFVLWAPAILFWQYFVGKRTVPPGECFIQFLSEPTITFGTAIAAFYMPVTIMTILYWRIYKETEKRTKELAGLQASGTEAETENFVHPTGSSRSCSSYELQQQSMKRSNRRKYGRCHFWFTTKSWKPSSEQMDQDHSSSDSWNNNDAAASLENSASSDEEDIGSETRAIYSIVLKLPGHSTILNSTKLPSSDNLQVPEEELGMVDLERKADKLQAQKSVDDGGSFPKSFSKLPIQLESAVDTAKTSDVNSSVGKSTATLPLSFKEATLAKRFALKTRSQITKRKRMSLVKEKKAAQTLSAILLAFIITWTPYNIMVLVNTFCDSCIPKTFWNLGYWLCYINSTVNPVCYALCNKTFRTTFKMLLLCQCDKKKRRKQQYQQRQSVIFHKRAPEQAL
Procedure: Functional Assessment of Antagonist Activity Using a Whole Cell β-Lactamase Reporter Assay in CHO Cells Expressing the hM3 Receptor.
CHO (Chinese Hamster Ovary) cells recombinantly expressing the human muscarinic M3 receptor were transfected with the NFAT_β-Lac_Zeo plasmid. Cells were grown in DMEM with Glutamax-1, supplemented with 25 mM HEPES (Life Technologies 32430-027), containing 10% FCS (Foetal Calf Serum; Sigma F-7524), […] Sodium pyruvate (Sigma S-8636), NEAA (non-Essential Amino Acids; Invitrogen 11140-035) and 200 μg/ml Zeocin (Invitrogen R250-01).
Cells were harvested for assay when they reached 80-90% confluency using enzyme free cell Dissociation Solution (Life technologies 13151-014) incubated with the cells for 5 min at 37° C. in an atmosphere containing 5% CO2. Detached cells were collected in warmed growth media and centrifuged at 2000 rpm for 10 min, washed in PBS (Phosphate Buffered Saline; Life Technologies 14190-094) and centrifuged again as just described. The cells were re-suspended at 2×10^5 cells/ml in growth medium (composition as described above). 20 μl of this cell suspension was added to each well of a 384 well black clear bottomed plate (Greiner Bio One 781091-PFI). The assay buffer used was PBS supplemented with 0.05% Pluronic F-127 (Sigma 9003-11-6) and 2.5% DMSO. Muscarinic M3 receptor signalling was stimulated using 80 nM carbamyl choline (Aldrich N240-9) incubated with the cells for 4 h at 37° C./5% CO2 and monitored at the end of the incubation period using a Tecan SpectraFluor+ plate reader (λ-excitation 405 nm, emission 450 nm and 503 nm). Compounds under test were added to the assay at the beginning of the 4 h incubation period and compound activity measured as the concentration dependent inhibition of the carbamyl choline induced signal. Inhibition curves were plotted and IC50 values generated using a 4-parameter sigmoid fit and converted to Ki values using the Cheng-Prusoff correction and the KD value for carbamyl choline in the assay.

Sequence of human adrenergic B2 receptor (P07550 whole entry): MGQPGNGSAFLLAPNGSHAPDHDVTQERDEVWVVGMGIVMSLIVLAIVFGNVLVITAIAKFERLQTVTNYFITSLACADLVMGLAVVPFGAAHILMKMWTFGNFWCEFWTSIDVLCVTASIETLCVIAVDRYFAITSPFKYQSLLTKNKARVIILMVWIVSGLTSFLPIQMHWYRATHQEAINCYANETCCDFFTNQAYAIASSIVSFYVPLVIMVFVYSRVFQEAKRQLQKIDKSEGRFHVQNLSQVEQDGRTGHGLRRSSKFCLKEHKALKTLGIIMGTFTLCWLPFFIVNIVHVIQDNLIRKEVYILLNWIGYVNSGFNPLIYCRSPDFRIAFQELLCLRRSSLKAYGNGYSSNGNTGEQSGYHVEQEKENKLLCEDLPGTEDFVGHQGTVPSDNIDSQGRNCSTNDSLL

Row | EC50 [1] [nM] | IC50 [2] [nM] | SMILES
1 | 1.01 | 2.93 | CS(=O)(=O)Nc1cc([C@@H](O)CNCCCCCCCCCN2CCC(OC(=O)Nc3ccccc3-c3ccc(O)c(F)c3)CC2)ccc1O [Example 1, 1-(9-{[(2R)-2-Hydroxy-2-{4-hydroxy-3-[(methylsulfonyl)amino]phenyl}ethyl]amino}nonyl)piperidin-4-yl(3′-fluoro-4′-hydroxybiphenyl-2-yl)carbamate]
2 | 0.133 | 0.725 | CS(=O)(=O)Nc1cc([C@@H](O)CNCCCCCCCCCN2CCC(OC(=O)Nc3ccccc3-c3ccc(O)c(Cl)c3)CC2)ccc1O [Example 2, 1-(9-{[(2R)-2-Hydroxy-2-{4-hydroxy-3-[(methylsulfonyl)amino]phenyl}ethyl]amino}nonyl)piperidin-4-yl(3′-chloro-4′-hydroxybiphenyl-2-yl)carbamate]
3 | 0.252 | 1.07 | CS(=O)(=O)Nc1cc([C@@H](O)CNCCCCCCCCCN2CCC(OC(=O)Nc3ccc(F)cc3-c3ccc(O)c(Cl)c3)CC2)ccc1O [Example 3, 1-(9-{[(2R)-2-hydroxy-2-{4-hydroxy-3-[(methylsulfonyl)amino]phenyl}ethyl]amino}nonyl)piperidin-4-yl(3′-chloro-5-fluoro-4′-hydroxybiphenyl-2-yl)carbamate]
